The results in this text go back to patent US8426588B2, “Phenylalanine derivatives” (Ajinomoto Co, Inc., priority 2000, dated 2013).

In assay [1] the target is T1, integrin α4β7 (Homo sapiens, UniProt P13612+P26010).
T1 construct: lymphoma cell strain RPMI-8866 of human B cells, known to express integrin α4β7; endogenous in cells; host or cells: RPMI-8866
T1 sequence (P13612 34-1032): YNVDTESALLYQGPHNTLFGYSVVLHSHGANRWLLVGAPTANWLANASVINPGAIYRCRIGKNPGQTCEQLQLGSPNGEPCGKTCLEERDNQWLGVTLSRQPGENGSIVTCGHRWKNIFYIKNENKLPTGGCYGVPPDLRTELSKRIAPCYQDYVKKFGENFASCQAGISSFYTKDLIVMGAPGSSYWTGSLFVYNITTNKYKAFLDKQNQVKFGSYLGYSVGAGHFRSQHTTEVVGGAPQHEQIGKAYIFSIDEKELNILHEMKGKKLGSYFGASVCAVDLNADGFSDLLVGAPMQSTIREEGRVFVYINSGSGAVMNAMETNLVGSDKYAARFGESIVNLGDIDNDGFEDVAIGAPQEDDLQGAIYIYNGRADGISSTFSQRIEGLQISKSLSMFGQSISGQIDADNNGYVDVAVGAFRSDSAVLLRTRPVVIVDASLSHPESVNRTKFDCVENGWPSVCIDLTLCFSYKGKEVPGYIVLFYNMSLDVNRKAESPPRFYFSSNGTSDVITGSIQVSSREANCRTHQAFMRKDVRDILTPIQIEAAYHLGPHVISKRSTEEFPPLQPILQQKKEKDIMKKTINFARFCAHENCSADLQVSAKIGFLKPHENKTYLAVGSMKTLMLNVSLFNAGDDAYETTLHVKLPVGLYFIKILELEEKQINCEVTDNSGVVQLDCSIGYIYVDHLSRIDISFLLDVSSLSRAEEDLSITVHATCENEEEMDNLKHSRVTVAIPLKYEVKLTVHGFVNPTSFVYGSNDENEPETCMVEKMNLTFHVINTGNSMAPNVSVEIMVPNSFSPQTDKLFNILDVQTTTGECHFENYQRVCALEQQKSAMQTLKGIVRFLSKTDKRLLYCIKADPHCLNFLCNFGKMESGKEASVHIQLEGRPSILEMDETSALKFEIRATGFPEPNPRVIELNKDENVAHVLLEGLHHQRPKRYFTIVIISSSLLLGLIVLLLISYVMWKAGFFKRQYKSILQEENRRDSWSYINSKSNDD
T1 sequence (P26010 20-798): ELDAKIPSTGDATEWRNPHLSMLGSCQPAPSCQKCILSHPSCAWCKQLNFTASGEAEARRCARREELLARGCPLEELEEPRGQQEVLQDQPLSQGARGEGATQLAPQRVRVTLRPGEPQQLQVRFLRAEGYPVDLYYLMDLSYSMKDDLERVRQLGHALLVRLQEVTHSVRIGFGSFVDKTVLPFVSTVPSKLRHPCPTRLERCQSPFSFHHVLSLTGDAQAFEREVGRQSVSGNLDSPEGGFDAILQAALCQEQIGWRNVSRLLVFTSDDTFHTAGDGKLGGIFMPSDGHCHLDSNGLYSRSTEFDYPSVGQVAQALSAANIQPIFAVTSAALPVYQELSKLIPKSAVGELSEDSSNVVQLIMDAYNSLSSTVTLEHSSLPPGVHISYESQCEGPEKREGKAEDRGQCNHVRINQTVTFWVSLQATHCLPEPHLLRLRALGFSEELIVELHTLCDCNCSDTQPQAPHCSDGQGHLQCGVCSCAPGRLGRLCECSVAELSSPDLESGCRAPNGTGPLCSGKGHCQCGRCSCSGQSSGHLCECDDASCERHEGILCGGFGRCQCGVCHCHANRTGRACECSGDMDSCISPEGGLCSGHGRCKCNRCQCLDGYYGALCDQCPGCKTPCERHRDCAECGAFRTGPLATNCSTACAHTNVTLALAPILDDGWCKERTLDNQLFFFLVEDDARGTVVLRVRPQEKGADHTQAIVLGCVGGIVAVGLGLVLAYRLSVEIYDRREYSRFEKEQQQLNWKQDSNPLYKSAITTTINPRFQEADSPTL
In words: VCAM antagonistic activity (VCAM-1/α4β7 binding assay), RPMI-8866 cells binding to VCAM-1. Format: cell-based. The following applies: RPMI-8866 human B lymphoma cells binding to recombinant human VCAM-1; binding buffer with 4 mM MnCl2. The method, then: VCAM Antagonistic Activity (VCAM-1/α4β7 Binding Assay)
The capacity of a test substance antagonistic to the binding of lymphoma cell strain RPMI-8866 of human B cells, known to express integrin α4β7, to VCAM-1 was determined.
(§1) 100 μl/well of a solution (500 ng/ml) of recombinant human VCAM-1 (R & D systems) solution diluted with buffer A (0.1 M NaHCO3, pH 9.6) was added to a micro titer plate having 96 wells (Nunc Maxisorp). After the incubation at 4° C. overnight, unbound VCAM-1 was removed by washing once with PBS. After completion of the washing, a buffer (buffer B) obtained by diluting Block Ace (Dainippon Pharmaceutical Co., Ltd.) with PBS to ¼ concentration was added in an amount of 150 μl/well. After the incubation at room temperature for 1 hour, buffer B was removed and the plate was washed with PBS once.
RPMI-8866 cells were washed with DMEM twice and incubated in Dulbecco modified Eagle medium containing 10 μg/ml of Calcein-AM (Wako Pure Chemical Industries, Ltd.) (SIGMA, hereinafter referred to as “DMEM”) in dark place at 37° C. for 30 minutes to label with fluorescence. The cells were again suspended in a binding buffer (20 mM HEPES, DMEM containing 0.1% BSA) containing 4 mM of MnCl2.
(§2) 50 μl of a test substance of various concentrations obtained by the dilution with the binding buffer was added to the plate. Immediately thereafter, 50 μl (final volume: 100 μl/well) of the fluorescent RPMI-8866 cells (4×10^6 cells/ml) were added thereto, and they were incubated in dark place at room temperature for 30 minutes. After the shaking on a plate shaker (IKA MTS-4) at 800 rpm for 30 seconds, the solution was immediately removed to remove the unbound cells. The fluorescence quantity of the bound cells remaining in the wells was determined with a fluorescent plate reader (Wallac 1420 ARVO multi-label counter) (filter excitation wave length: 485 nm, emission wave length: 535 nm). The fluorescent strength thus obtained is proportional to the number of RPMI-8866 cells bound to VCAM-1 and remaining on the plate. The binding rate of each test material in various concentrations was determined while the fluorescent strength of the test material-free well was determined to be 100%.

The target in assay [2] is T2, integrin α4β1 (Homo sapiens, UniProt P05556+P13612).
T2 construct: cell strain Jurkat (ATCC TIB-152) of human T cells, known to express integrin α4β1; endogenous in cells; host or cells: Jurkat (ATCC TIB-152)
In words: VCAM antagonist activity (VCAM-1/α4β1 binding assay), Jurkat cells binding to VCAM-1. As to conditions: Jurkat human T cells binding to recombinant human VCAM-1; read-out: VCAM antagonistic activity (IC50) α4β1. It is filed as cell-based. The method, then: VCAM Antagonist Activity (VCAM-1/α4β1 Binding Assay)
The capacity of a test substance antagonistic to the binding of cell strain Jurkat (ATCC TIB-152) of human T cells, known to express integrin α4β1, to VCAM-1 was determined.
as §1
Jurkat cells were washed with Dulbecco modified Eagle medium (SIGMA, hereinafter referred to as “DMEM”) twice and then incubated in DMEM containing 10 μg/ml of Calcein-AM (Wako Pure Chemical Industries, Ltd.) at 37° C. in dark place for 30 minutes to label with fluorescence. The cells were again suspended in a binding buffer (20 mM HEPES, DMEM containing 0.1% BSA).
as §2, with “Jurkat” for “RPMI-8866”, “1920” for “1420”

The structures appear in SMILES notation. pIC50: −log10 of the molar value.

T2 sequence (P05556 21-798, one chain of several): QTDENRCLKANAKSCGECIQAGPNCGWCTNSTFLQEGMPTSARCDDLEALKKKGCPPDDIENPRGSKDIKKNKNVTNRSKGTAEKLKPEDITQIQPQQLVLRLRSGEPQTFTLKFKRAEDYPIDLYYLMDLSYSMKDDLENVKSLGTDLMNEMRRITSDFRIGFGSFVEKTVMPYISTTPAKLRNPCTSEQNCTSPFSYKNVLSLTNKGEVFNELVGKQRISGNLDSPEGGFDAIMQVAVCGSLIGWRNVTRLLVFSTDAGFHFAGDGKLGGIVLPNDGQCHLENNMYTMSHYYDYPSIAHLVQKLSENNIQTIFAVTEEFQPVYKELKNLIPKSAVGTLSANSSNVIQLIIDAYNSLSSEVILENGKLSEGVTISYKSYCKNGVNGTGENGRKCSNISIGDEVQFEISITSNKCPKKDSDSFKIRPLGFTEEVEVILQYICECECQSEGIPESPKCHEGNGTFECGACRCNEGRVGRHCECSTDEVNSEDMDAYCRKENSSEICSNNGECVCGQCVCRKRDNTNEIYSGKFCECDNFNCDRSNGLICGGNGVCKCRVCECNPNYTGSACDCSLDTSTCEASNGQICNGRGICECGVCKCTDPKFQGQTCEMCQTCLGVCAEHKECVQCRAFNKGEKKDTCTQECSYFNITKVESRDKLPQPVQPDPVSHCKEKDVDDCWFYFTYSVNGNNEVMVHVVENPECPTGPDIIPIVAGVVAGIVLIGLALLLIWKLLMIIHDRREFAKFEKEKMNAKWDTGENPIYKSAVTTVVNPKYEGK

Consider `Cn1c(=O)n(-c2ccc(C[C@H](NC(=O)c3c(Cl)cccc3Cl)C(=O)O)cc2)c(=O)c2cc([N+](=O)[O-])ccc21` [Example 63], for which the pIC50 (as a rule, the IC50 on a negative log10 scale, so that one unit is a factor of ten) is 8.89 in assay [1] and 7.55 in assay [2].

Regarding `CCSc1nc2ccccc2c(=O)n1-c1ccc(C[C@H](NC(=O)c2c(Cl)cccc2Cl)C(=O)O)cc1` [Example 17], the pIC50 in assay [1] is 7.37; in assay [2], 5.68.

Consider `Cc1cccc2[nH]c(=O)n(-c3ccc(C[C@H](NC(=O)c4c(Cl)cccc4Cl)C(=O)O)cc3)c(=O)c12` [Example 53], for which the pIC50 in assay [1] is 7.18; in assay [2], 5.61.

On to `Cn1c(=O)n(-c2ccc(C[C@H](NC(=O)[C@H]3CC[C@H](C(=O)O)CC3)C(=O)O)cc2)c(=O)c2ccccc21` [Example 13], for which the pIC50 in assay [1] was 8.35; in assay [2], 6.66.

Turning to `CCOc1nc2ccc(Cl)cc2c(=O)n1-c1ccc(C[C@H](NC(=O)c2c(Cl)cccc2Cl)C(=O)O)cc1` [Example 93], the pIC50 in assay [1] was 8.32; in assay [2], 5.39.

With `CCn1c(=S)n(-c2ccc(C[C@H](NC(=O)c3c(Cl)cccc3Cl)C(=O)O)cc2)c(=O)c2cc([N+](=O)[O-])ccc21` [Example 67], the pIC50 in assay [1] was 8.66; in assay [2] it was 6.43.

For the compound `O=C(N[C@@H](Cc1ccc(-n2c(=O)[nH]c3ccccc3c2=O)cc1)C(=O)O)c1c(Cl)cccc1Cl` [Example 2], the figures for the pIC50 in assay [1] and in assay [2] were 8.04 and 6.62, respectively.

Take `O=C(N[C@@H](Cc1ccc(-n2nnc3c(Cl)ccc(Cl)c3c2=O)cc1)C(=O)O)c1c(Cl)cccc1Cl` [Example 81]: the pIC50 in assay [1] is 8.07; in assay [2] it was 7.14.

On to `Cc1cccc2c(=O)n(-c3ccc(C[C@H](NC(=O)c4c(Cl)cccc4Cl)C(=O)O)cc3)c(=O)[nH]c12` [Example 50], for which the figures for the pIC50 in assay [1] and in assay [2] were 8.10 and 5.75, respectively.

Consider `O=C(N[C@@H](Cc1ccc(-n2c(=O)c3cc([N+](=O)[O-])ccc3n(Cc3ccccc3)c2=O)cc1)C(=O)O)c1c(Cl)cccc1Cl` [Example 65], for which the pIC50 in assay [1] was 8.15; in assay [2] it was 6.48.

As to `O=C(N[C@@H](Cc1ccc(-n2c(=O)c3ccccc3n(Cc3ccc(Cl)cc3)c2=O)cc1)C(=O)O)c1c(Cl)cccc1Cl` [Example 117], the results for the pIC50 in assay [1] and in assay [2] were 7.72 and 6.32, respectively.

For `CSc1nc2ccccc2c(=O)n1-c1ccc(C[C@H](NC(=O)c2c(Cl)cccc2Cl)C(=O)O)cc1` [Example 18], the results for the pIC50 in assay [1] and in assay [2] were 7.64 and 5.72, respectively.

Take `Cn1c(=O)n(-c2ccc(C[C@H](NC(=O)c3c(Cl)cccc3Cl)C(=O)O)cc2)c(=O)c2cc(N)ccc21` [Example 107]: the pIC50 in assay [1] was 8.96; in assay [2], 7.77.

Regarding `O=C(N[C@@H](Cc1ccc(-n2nnc3ccccc3c2=O)cc1)C(=O)O)c1c(Cl)cccc1Cl` [Example 90], the figures for the pIC50 in assay [1] and in assay [2] were 7.36 and 6.29, respectively.

Consider `COc1cccc2c(=O)n(-c3ccc(C[C@H](NC(=O)c4c(Cl)cccc4Cl)C(=O)O)cc3)c(=O)[nH]c12` [Example 46], for which the values for the pIC50 in assay [1] and in assay [2] were 8.17 and 6.71, respectively.

With `CCCCc1nc2ccccc2c(=O)n1-c1ccc(C[C@H](NC(=O)c2c(Cl)cccc2Cl)C(=O)O)cc1` [Example 34], the pIC50 in assay [1] was 7.38; in assay [2], 5.66.

As for `CC(C)Cn1c(=O)n(-c2ccc(C[C@H](NC(=O)c3c(Cl)cccc3Cl)C(=O)O)cc2)c(=O)c2cc([N+](=O)[O-])ccc21` [Example 61], the pIC50 in assay [1] was 7.38; in assay [2], 5.94.

As for `CCN(CC)c1ccc2c(c1)c(=O)n(-c1ccc(C[C@H](NC(=O)c3c(Cl)cccc3Cl)C(=O)O)cc1)c(=O)n2C` [Example 111], the figures for the negative logarithm of the IC50 (pIC50) in assay [1] and in assay [2] were 7.96 and 7.06, respectively.

Turning to `Cn1c(=O)n(-c2ccc(C[C@H](NC(=O)c3c(Cl)cccc3Cl)C(=O)O)cc2)c(=O)c2cccc(Cl)c21` [Example 182], the values for the pIC50 in assay [1] and in assay [2] were 8.21 and 6.95, respectively.

On to `CCCCc1nc2ccccc2c(=O)n1-c1ccc(C[C@H](NC(=O)c2c(C)cccc2C)C(=O)O)cc1` [Example 41], for which the pIC50 was 7.07 in assay [1] and 5.47 in assay [2].

For `COc1cc2c(=O)n(-c3ccc(C[C@H](NC(=O)c4c(Cl)cccc4Cl)C(=O)O)cc3)c(=O)n(C)c2cc1OC` [Example 188], the values for the pIC50 in assay [1] and in assay [2] were 8.57 and 7.96, respectively.

As to `O=C(N[C@@H](Cc1ccc(-n2c(=O)c3cc([N+](=O)[O-])ccc3n(C3CCC3)c2=O)cc1)C(=O)O)c1c(Cl)cccc1Cl` [Example 59], the pIC50 is 7.45 in assay [1] and 6.27 in assay [2].
